Experimental data published in patent US20260216294A1, “BETA 2-ADRENERGIC RECEPTOR AGONISTS FOR TREATMENT OR PREVENTION OF MUSCLE WASTING” (ATROGI AB, priority 2023, published 2026).

Legend:
Format in all cases: cell-based
[1] = system: L6-myotubes; test: Measurement of intracellular cAMP levels in differentiated L6-myotubes (Biological Example 3); conditions: for Emax at 10 µM: 0.25 h, intracellular cAMP in differentiated L6-myotubes, compound at 10 μM, activity relative to isoproterenol at 10 μM
Method in brief: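 Intracellular cAMP quantified by AlphaScreen after ethanol extraction and lysis of L6 myotubes. Cells were serum-starved overnight, then exposed for 15 min to compound (final 1×10^−5 M) or isoprenaline in IBMX-containing (1 mM) HBSS buffer, pH 7.4.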

[2] = system: L6-myotubes; test: Glucose uptake in differentiated L6-myotubes (Biological Example 2); conditions: for Emax at 10 µM: glucose uptake in differentiated L6-myotubes, compound at 10 μM, activity relative to isoproterenol at 10 μM, read-out: Biological example 2 (GU)
Method in brief: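 Uptake was quantified as radioactivity in 0.2 M NaOH lysates after a 10 min pulse of 50 nM ^3H-2-deoxyglucose. The pulse followed two agonist exposures at 1×10^−5 M final (isoprenaline or test compound): 1 h 40 min, then 20 min in glucose-free medium after washing. L6 myotubes had been starved overnight in medium with 0.5% fatty-acid-free BSA.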

[3] = target: T1, β2-adrenergic receptor (Homo sapiens, UniProt P07550); test: β-arrestin 2 recruitment, Large BiT/Small BiT luciferase complementation in HEK293 cells (Biological Example 4); conditions: luminescence after 31 min, compared with isoprenaline, FIGS. 3a-3c
T1 construct: expressed in transfected cells; host or cells: HEK293
Description: HEK293 cells are transfected with both the β2-adrenergic receptor attached with a Large BiT SNAP-tag protein, and with p-arrestin 2 attached to a Small BiT SNAP-tag protein. When cells are stimulated and the receptor recruits β-arrestin 2, the Small- and Large-BiT proteins merge, forming a functional luciferase enzyme, that in presence of furimazine generates light. After 31 min, the light is measured with a luminescence plate reader.

[4] = target: T2, β2-adrenergic receptor (Rattus norvegicus, UniProt P10608); test: Glucose uptake in the presence of the selective β2-adrenergic receptor antagonist ICI-118551 (Biological Example 1); conditions: L6-myotubes; test compound 1×10^−5 M; different concentrations of ICI-118551; FIGS. 1a-1c
T2 construct: endogenous in cells; host or cells: L6 myoblasts differentiated into myotubes
Description: L6-myoblasts were grown in Dulbecco's Modified Eagle's Medium (DMEM) containing 1 g/L glucose supplemented with 10% fetal bovine serum (FBS), 2 mM L-glutamine, 50 U/mL penicillin, 50 μg/mL streptomycin and 10 mM HEPES. Cells were plated at 1×10^5 cells per mL in 24-well plates. After reaching 90% confluence the cells were grown in medium containing 2% FBS for 7 days where upon cells differentiated into myotubes. The differentiated L6-myotubes were serum-starved overnight in medium containing 0.5% fatty-acid free BSA and stimulated with the test compound at a final concentration of 1×10^−5 M in the presence of different concentrations of the selective β2-adrenergic receptor antagonist ICI-118551. After 1 h 40 min the cells were washed with warm, glucose free medium twice and another portion of agonist was added to the glucose free medium. After another 20 min of incubation the cells were exposed to 50 nM ^3H-2-deoxyglucose for 10 min before washed in ice cold glucose free medium three times and lysed in 400 μL/well 0.2 M NaOH for 1 h at 60° C. The cell lysate was mixed with 4 ml scintillation buffer (Emulsifier Safe, Perkin Elmer) and the radioactivity was detected in a β-counter (Tri-Carb 4810TR, Perkin Elmer).

T1 sequence (P07550 whole entry, species assumed): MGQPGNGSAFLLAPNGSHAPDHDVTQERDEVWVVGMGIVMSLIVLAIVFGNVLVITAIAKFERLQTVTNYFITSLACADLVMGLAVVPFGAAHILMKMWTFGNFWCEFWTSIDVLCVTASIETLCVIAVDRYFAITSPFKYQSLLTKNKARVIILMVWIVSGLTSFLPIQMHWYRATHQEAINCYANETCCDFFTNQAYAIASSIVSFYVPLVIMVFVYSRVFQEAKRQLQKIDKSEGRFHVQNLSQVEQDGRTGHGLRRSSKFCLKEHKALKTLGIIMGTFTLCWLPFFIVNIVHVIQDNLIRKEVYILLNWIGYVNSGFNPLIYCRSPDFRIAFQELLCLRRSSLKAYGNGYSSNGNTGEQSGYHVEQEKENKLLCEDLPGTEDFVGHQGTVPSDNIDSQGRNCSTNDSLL
T2 sequence (P10608 whole entry): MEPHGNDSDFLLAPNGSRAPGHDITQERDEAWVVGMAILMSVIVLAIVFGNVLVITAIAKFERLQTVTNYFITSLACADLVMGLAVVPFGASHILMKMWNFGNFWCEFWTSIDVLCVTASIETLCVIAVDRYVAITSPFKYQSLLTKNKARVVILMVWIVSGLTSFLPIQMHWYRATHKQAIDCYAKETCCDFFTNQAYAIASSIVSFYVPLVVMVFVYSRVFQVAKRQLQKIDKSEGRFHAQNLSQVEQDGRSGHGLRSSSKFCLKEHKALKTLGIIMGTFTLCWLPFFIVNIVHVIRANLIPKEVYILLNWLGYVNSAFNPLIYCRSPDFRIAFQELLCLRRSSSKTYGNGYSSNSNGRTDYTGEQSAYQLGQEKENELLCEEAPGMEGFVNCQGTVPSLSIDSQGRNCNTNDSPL

Structure (SMILES) | Emax at 10 µM [1] | Emax at 10 µM [2] | further results
CN([C@H]1CC[C@H](CC(C)(C)NC[C@H](O)c2cncc(F)c2)CC1)S(C)(=O)=O [Compound 521, (R)-2-{1,1-dimethyl-2-[(1r,4R)-4-(N-mesyl-N-methylamino)cyclohexyl]ethylamino}-1-(5-fluoro-3-pyridyl)-1-ethanol] | < 25% | 50 to 75% | –
CC(C)(C[C@H]1CC[C@@H](NS(=O)(=O)C(F)(F)F)CC1)NC[C@H](O)c1cncc(F)c1 [Compound 522] | < 25% | > 75% | –
CCCS(=O)(=O)N[C@H]1CC[C@@H](CC(C)(C)NC[C@H](O)c2cncc(F)c2)CC1 [Compound 523, (R)-2-{1,1-dimethyl-2-[(1s,4S)-4-(propylsulfonylamino)cyclohexyl]ethylamino}-1-(5-fluoro-3-pyridyl)-1-ethanol] | < 25% | 50 to 75% | –
CCS(=O)(=O)N[C@H]1CC[C@@H](CC(C)(C)NC[C@H](O)c2cncc(F)c2)CC1 [Compound 524] | < 25% | 50 to 75% | –
CCS(=O)(=O)N[C@H]1CC[C@H](CC(C)(C)NC[C@H](O)c2cncc(F)c2)CC1 [Compound 525, (R)-2-{1,1-dimethyl-2-[(1r,4R)-4-(ethylsulfonylamino)cyclohexyl]ethylamino}-1-(5-fluoro-3-pyridyl)-1-ethanol] | < 25% | 50 to 75% | –
CC(C)CS(=O)(=O)N[C@H]1CC[C@H](CC(C)(C)NC[C@H](O)c2cncc(F)c2)CC1 [Compound 526] | < 25% | 50 to 75% | –
O[C@@H](c1cccc(F)c1)C12CCC(CCc3ccc(Cl)cc3)(CC1)N2 [Compound 527, (S)-{4-[2-(p-chlorophenyl)ethyl]-7-azabicyclo[[2.2.1]]hept-1-yl}(m-fluorophenyl)methanol] | < 25% | < 25% | –
O[C@H](c1cccc(F)c1)C12CCC(CCc3ccc(Cl)cc3)(CC1)N2 [Compound 528, (R)-{4-[2-(p-chlorophenyl)ethyl]-7-azabicyclo[[2.2.1]]hept-1-yl}(m-fluorophenyl)methanol] | < 25% | < 25% | –
O[C@@H](c1cncc(F)c1)C12CCC(C/C=C/c3ccccc3)(CC1)N2 [Compound 529, (S)-{4-[(E)-3-phenyl-2-propenyl]-7-azabicyclo[[2.2.1]]hept-1-yl}(5-fluoro-3-pyridyl)methanol] | < 25% | 25 to 50% | –
O[C@H](c1cncc(F)c1)C12CCC(C/C=C/c3ccccc3)(CC1)N2 [Compound 530, (R)-{4-[(E)-3-phenyl-2-propenyl]-7-azabicyclo[[2.2.1]]hept-1-yl}(5-fluoro-3-pyridyl)methanol] | 25 to 50% | > 75% | –
O[C@@H](c1cncc(F)c1)C12CCC(CCCc3ccccc3)(CC1)N2 [Compound 531, (S)-(5-fluoro-3-pyridyl){4-(3-phenylpropyl)-7-azabicyclo[[2.2.1]]hept-1-yl}methanol] | < 25% | 50 to 75% | –
O[C@H](c1cncc(F)c1)C12CCC(CCCc3ccccc3)(CC1)N2 [Compound 532, (R)-(5-fluoro-3-pyridyl){4-(3-phenylpropyl)-7-azabicyclo[[2.2.1]]hept-1-yl}methanol] | 25 to 50% | 50 to 75% | –
O[C@@H](c1cccc(F)c1)C12CCC(C/C=C/c3ccccc3)(CC1)N2 [Compound 533, (S)-{4-[(E)-3-phenyl-2-propenyl]-7-azabicyclo[[2.2.1]]hept-1-yl}(m-fluorophenyl)methanol] | < 25% | < 25% | –
O[C@H](c1cccc(F)c1)C12CCC(C/C=C/c3ccccc3)(CC1)N2 [Compound 534] | < 25% | > 75% | –
O[C@@H](c1cccc(F)c1)C12CCC(CCCc3ccccc3)(CC1)N2 [Compound 535, (S)-(m-fluorophenyl){4-(3-phenylpropyl)-7-azabicyclo[[2.2.1]]hept-1-yl}methanol] | < 25% | 25 to 50% | –
O[C@H](c1cccc(F)c1)C12CCC(CCCc3ccccc3)(CC1)N2 [Compound 536, (R)-(m-fluorophenyl){4-(3-phenylpropyl)-7-azabicyclo[[2.2.1]]hept-1-yl}methanol] | 25 to 50% | > 75% | –
CS(=O)(=O)N(Cc1ccccc1)CC12CCC([C@H](O)c3cccc(F)c3)(CC1)N2 [Compound 537, (R)-(4-{[(benzyl)-N-mesylamino]methyl}-7-azabicyclo[[2.2.1]]hept-1-yl)(m-fluorophenyl)methanol] | 25 to 50% | 50 to 75% | –
CS(=O)(=O)N(Cc1ccccc1)CC12CCC([C@@H](O)c3cccc(F)c3)(CC1)N2 [Compound 538, (S)-(4-{[(benzyl)-N-mesylamino]methyl}-7-azabicyclo[[2.2.1]]hept-1-yl)(m-fluorophenyl)methanol] | < 25% | 50 to 75% | –
COc1ccc(CCC23CCC([C@@H](O)c4cccc(F)c4)(CC2)N3)cc1 [Compound 539, (S)-(m-fluorophenyl){4-[2-(p-methoxyphenyl)ethyl]-7-azabicyclo[[2.2.1]]hept-1-yl}methanol] | < 25% | < 25% | –
COc1ccc(CCC23CCC([C@H](O)c4cccc(F)c4)(CC2)N3)cc1 [Compound 540, (R)-(m-fluorophenyl){4-[2-(p-methoxyphenyl)ethyl]-7-azabicyclo[[2.2.1]]hept-1-yl}methanol] | 25 to 50% | 50 to 75% | –
COc1ccc(CCC23CCC([C@@H](O)c4cncc(F)c4)(CC2)N3)cc1 [Compound 541, (S)-(5-fluoro-3-pyridyl){4-[2-(p-methoxyphenyl)ethyl]-7-azabicyclo[[2.2.1]]hept-1-yl}methanol] | < 25% | < 25% | –
COc1ccc(CCC23CCC([C@H](O)c4cncc(F)c4)(CC2)N3)cc1 [Compound 542, (R)-(5-fluoro-3-pyridyl){4-[2-(p-methoxyphenyl)ethyl]-7-azabicyclo[[2.2.1]]hept-1-yl}methanol] | 25 to 50% | 50 to 75% | –
O[C@@H](c1cncc(F)c1)C12CCC(CCc3ccc(OC(F)(F)F)cc3)(CC1)N2 [Compound 543, (S)-(5-fluoro-3-pyridyl){4-[2-(p-trifluoromethoxyphenyl)ethyl]-7-azabicyclo[[2.2.1]]hept-1-yl}methanol] | < 25% | < 25% | –
O[C@@H](c1cccc(F)c1)C12CCC(CCc3ccc(OC(F)(F)F)cc3)(CC1)N2 [Compound 544, (S)-(m-fluorophenyl){4-[2-(p-trifluoromethoxyphenyl)ethyl]-7-azabicyclo[[2.2.1]]hept-1-yl}methanol] | < 25% | < 25% | –
O[C@H](c1cncc(F)c1)C12CCC(CCc3ccc(OC(F)(F)F)cc3)(CC1)N2 [Compound 545, (R)-(5-fluoro-3-pyridyl){4-[2-(p-trifluoromethoxyphenyl)ethyl]-7-azabicyclo[[2.2.1]]hept-1-yl}methanol] | < 25% | < 25% | –
O[C@H](c1cccc(F)c1)C12CCC(CCc3ccc(OC(F)(F)F)cc3)(CC1)N2 [Compound 546, (R)-(m-fluorophenyl){4-[2-(p-trifluoromethoxyphenyl)ethyl]-7-azabicyclo[[2.2.1]]hept-1-yl}methanol] | < 25% | < 25% | –
CC(C)(C)NC[C@H](O)c1cncc(F)c1.O=C(O)C(O)C(O)C(=O)O [Compound B, (R)-2-(tert-Butylamino)-1-(5-fluoropyridin-3-yl)ethan-1-ol hemi-tartrate] | – | – | β-arrestin 2 recruitment [3]: minimal p-arrestin 2 recruitment; intracellular cAMP levels ([1]; L6-myotubes, 15 min stimulation, compared with isoprenaline, FIGS. 2a-2d): low intracellular cAMP levels; glucose uptake ([2]; L6-myotubes, FIGS. 2a-2d): full glucose uptake response; glucose uptake promoted by the compound in the presence of ICI-118551 [4]: inhibited in a dose-dependent manner
